According to ChEMBL document CHEMBL4495564, “Identification of inhibitors of SARS-Cov2 M-Pro enzymatic activity using a small molecule repurposing screen” (2020):
“And” between values parts separate entries of the source, which are not always exact repeats. Equal entries are not always repeated. Structures can show the parent of a compound that is named as a salt.

Assays:
[1] = molecular target: Replicase polyprotein 1ab (Severe acute respiratory syndrome coronavirus 2, UniProt P0DTD1); assay: biochemical; assay type: functional
[2] = molecular target: Replicase polyprotein 1ab (Middle East respiratory syndrome-related coronavirus (isolate UnitedKingdom/H123990006/2012) (Betacoronavirus England 1) (Humancoronavirus EMC), UniProt K9N7C7); assay: biochemical; assay type: functional
[3] = molecular target: Replicase polyprotein 1ab (Middle East respiratory syndrome-related coronavirus (isolate UnitedKingdom/H123990006/2012) (Betacoronavirus England 1) (Humancoronavirus EMC)) (UniProt K9N7C7); details: at 10 µM
[4] = molecular target: Chymotrypsin (Homo sapiens) (UniProt Q99895+P17538+P40313+Q6GPI1); assay: Chymotrypsin inhibition percentage at 10 µM by FRET kind of response from peptide substrate; assay type: functional

Sequence of Replicase polyprotein 1ab (Middle East respiratory syndrome-related coronavirus (isolate UnitedKingdom/H123990006/2012) (Betacoronavirus England 1) (Humancoronavirus EMC), UniProt K9N7C7) (K9N7C7 3248-3553 limits assumed): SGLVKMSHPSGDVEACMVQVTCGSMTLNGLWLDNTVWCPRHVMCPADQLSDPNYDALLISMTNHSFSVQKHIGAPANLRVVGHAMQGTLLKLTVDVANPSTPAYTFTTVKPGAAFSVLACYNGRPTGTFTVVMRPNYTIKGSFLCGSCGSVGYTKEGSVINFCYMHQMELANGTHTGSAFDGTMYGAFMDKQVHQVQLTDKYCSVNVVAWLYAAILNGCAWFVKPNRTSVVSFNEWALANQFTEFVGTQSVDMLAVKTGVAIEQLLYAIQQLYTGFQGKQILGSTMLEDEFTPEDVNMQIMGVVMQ

C/N=c1/nc(-c2ccccc2)n(-c2ccccc2)s1
IC50 [1]: 0.98 µM
IC50 [2]: > 10 µM
inhibition [3]: 44%

Nc1nc(S)c2ncn(C3OC(CO)C(O)C3O)c2n1 (stereo unspecified)
IC50 [1]: 1.08 µM
inhibition [4]: 7.56%

O=C(O)[C@@H](S)[C@@H](S)C(=O)O
IC50 [1]: 1.72 µM
IC50 [2]: > 10 µM
inhibition [3]: 0%

CN1CCN(C2=C(Cl)C(=O)N(c3ccc(Cl)c(Cl)c3)C2=O)CC1
IC50 [1]: < 1.23 µM
inhibition [4]: 9.67%

CCOc1cc(C(Nc2cc(C)ccn2)c2ccc3cccnc3c2O)ccc1OC (stereo unspecified)
IC50 [1]: < 0.27 µM
inhibition [4]: 13.3%

Cc1ccc(-n2sc(=O)n(Cc3ccc(F)cc3)c2=O)cc1
IC50 [1]: 0.23 µM
IC50 [2]: > 10 µM
inhibition [4]: 24.5%
inhibition [3]: 35%

Sc1nnnn1-c1ccccc1
IC50 [1]: 2.36 µM
inhibition [4]: 4.48%

CC(C)(C)OC(=O)NCCc1nnc(S(=O)(=O)Cc2ccc(Cl)cc2Cl)o1
IC50 [1]: 4.22 µM
inhibition [4]: 103%

Sc1nnc(Nc2ccccc2)s1
IC50 [1]: 0.39 µM
inhibition [4]: 4.67%

CN1CCN(C(=O)c2ccc(-c3ccc4c(C=O)c(O)ccc4c3)s2)CC1
IC50 [1]: 1.33 µM
inhibition [4]: 9.67%

Cc1ccc(S(=O)(=O)/C=C/C#N)cc1
IC50 [1]: 0.82 µM
IC50 [2]: > 10 µM
inhibition [3]: 17%

C/C=C1\C(OC2OC(CO)C(O)C(O)C2O)OC=C(C(=O)OC)C1CC(=O)OCCc1ccc(O)c(O)c1 (stereo unspecified)
IC50 [1]: 3.38 µM
IC50 [2]: > 10 µM
inhibition [3]: 0%

Oc1cc(CNC(=S)/C=C/c2cc(O)c(O)c(Br)c2)cc(O)c1O
IC50 [1]: 0.48 µM
IC50 [2]: > 10 µM
inhibition [3]: 20%

O=C1C=Cc2cc(Br)ccc2C1=O
IC50 [1]: 0.16 µM
IC50 [2]: > 10 µM
inhibition [4]: 8.47%
inhibition [3]: 9% and 0%

CCOC(=O)c1c(N)sc(-c2ccccc2)c1C
IC50 [1]: 3.19 µM
inhibition [4]: 5.82%

COc1cccc2c1C(=O)c1c(O)c3c(c(O)c1C2=O)C[C@@](O)(/C(CO)=N/NC(=O)CCCCCN1C(=O)C=CC1=O)C[C@@H]3O[C@H]1C[C@H](N)[C@H](O)[C@H](C)O1 [ALDOXORUBICIN]
IC50 [1]: 0.58 µM
IC50 [2]: > 10 µM
inhibition [3]: 1%

C[C@@](Cc1ccc(O)c(O)c1)(NN)C(=O)O [CARBIDOPA ANHYDROUS]
IC50 [1]: 3.55 µM
IC50 [2]: > 10 µM
inhibition [3]: 0%

O=C1C(Cl)=C(Cl)C(=O)C(Cl)=C1Cl [CHLORANIL]
IC50 [1]: < 0.02 µM
inhibition [4]: 10.1%

CC(C)Nc1cccnc1N1CCN(C(=O)c2cc3cc(NS(C)(=O)=O)ccc3[nH]2)CC1 [DELAVIRDINE MESYLATE]
IC50 [1]: 3.99 µM
IC50 [2]: > 10 µM
inhibition [4]: 9.13%
inhibition [3]: 34%

Cc1c(OCC(F)(F)F)ccnc1C[S+]([O-])c1nc2ccccc2[nH]1 (stereo unspecified) [LANSOPRAZOLE]
IC50 [1]: 0.39 µM
IC50 [2]: > 10 µM
inhibition [4]: 6.43% and 5.66%
inhibition [3]: 47%

Cc1c(-c2cnccn2)ssc1=S [OLTIPRAZ]
IC50 [1]: 0.62 µM
IC50 [2]: > 10 µM
inhibition [4]: 9.89%
inhibition [3]: 10% and 0%

Nc1ccc2cc3ccc(N)cc3nc2c1 [PROFLAVINE]
IC50 [1]: 0.36 µM
IC50 [2]: > 10 µM
inhibition [4]: 16.3%

O=c1c(O)cccc2cc(O)c(O)c(O)c12 [PURPUROGALLIN]
IC50 [1]: 4.58 µM
inhibition [4]: 9.33%

[O-][n+]1ccccc1S [PYRITHIONE ZINC]
IC50 [1]: 2.46 µM
IC50 ([2]; tested as the Zn salt or complex): > 10 µM

S=C(S)N1CCCC1 [PYRROLIDINE DITHIOCARBAMIC ACID, AMMONIUM SALT]
IC50 [1]: 0.21 µM
IC50 [2]: > 10 µM
inhibition [3]: 42%

CC(CN1CC(=O)NC(=O)C1)N1CC(=O)NC(=O)C1 (stereo unspecified) [RAZOXANE]
IC50 [1]: 3.19 µM
IC50 [2]: > 10 µM
inhibition [4]: -0.92%
inhibition [3]: 7%

Cc1ccc(S(=O)(=O)N[C@@H](Cc2ccccc2)C(=O)CCl)cc1 [TPCK]
IC50 [1]: 1.37 µM
inhibition [4]: 39.6%

CC(C)c1cc(CNc2nc(Nc3cc(C4CC4)[nH]n3)cc(N3CCN(C)CC3)n2)on1 [XL-228]
IC50 [1]: 1.49 µM
IC50 [2]: > 10 µM
inhibition [3]: 9%

ACRIFLAVINE HYDROCHLORIDE
IC50 [1]: 1.93 µM
IC50 [2]: 10 µM

AUROTHIOGLUCOSE
IC50 [1]: 1.74 µM
IC50 [2]: 10 µM

MERBROMIN
IC50 [1]: 0.24 µM
IC50 [2]: > 10 µM

PHENYLMERCURIC ACETATE
IC50 [1]: 0.01 µM
IC50 [2]: > 10 µM
